Data from the supplement of paper PMC10307832.

Key:
Test in all cases: relative viability (nuclei count vs DMSO), 5 days (fraction); higher = more cells survive
BX 795 = compound: O=C(NCCCNc1nc(Nc2cccc(NC(=O)N3CCCC3)c2)ncc1I)c1cccs1 [BX 795]
How it was run: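 On vehicle-anchored 1536-well plates, lung cancer cell lines held overnight at 37 °C were pinned with five library-drug doses (not always all listed) spaced by √10. With no medium change over 5 days, they were then fixed, permeabilised and Hoechst-stained in one step and imaged at 4×. MetaXpress counted nuclei, and viability is the median across plates of treated-well over vehicle-well nuclei. Acceptance needed control CV below 25% and at least one doubling.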

BX 795 + Luminespib = compound: O=C(NCCCNc1nc(Nc2cccc(NC(=O)N3CCCC3)c2)ncc1I)c1cccs1 [BX 795] + CCNC(=O)c1noc(-c2cc(C(C)C)c(O)cc2O)c1-c1ccc(CN2CCOCC2)cc1 [Luminespib] (partner 0.01 µM)
How it was run: (§1)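 Cells from lung cancer lines were seeded into 1536-well plates and, one day later, dosed by pin tool. Treatments were either a single drug or a fixed dose of an anchor drug with five library-drug doses (not always all listed) in √10 steps. After 5 days, nuclei were stained in a one-step fixation (final 0.05% Triton X-100, 1% formaldehyde, 1 ug/ml Hoechst) and counted on 4× images, and relative viability is the treated-to-vehicle nuclei ratio, as the median of duplicate plates.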

BX 795 + Lapatinib = compound: O=C(NCCCNc1nc(Nc2cccc(NC(=O)N3CCCC3)c2)ncc1I)c1cccs1 [BX 795] + CS(=O)(=O)CCNCc1ccc(-c2ccc3ncnc(Nc4ccc(OCc5cccc(F)c5)c(Cl)c4)c3c2)o1 [Lapatinib] (partner 2 µM)
How it was run: as §1

BX 795 + Crizotinib = compound: O=C(NCCCNc1nc(Nc2cccc(NC(=O)N3CCCC3)c2)ncc1I)c1cccs1 [BX 795] + C[C@@H](Oc1cc(-c2cnn(C3CCNCC3)c2)cnc1N)c1c(Cl)ccc(F)c1Cl [Crizotinib] (partner 1 µM)
How it was run: as §1

BX 795 + Vorinostat = compound: O=C(NCCCNc1nc(Nc2cccc(NC(=O)N3CCCC3)c2)ncc1I)c1cccs1 [BX 795] + O=C(CCCCCCC(=O)Nc1ccccc1)NO [Vorinostat] (partner 1 µM)
How it was run: as §1

Cell Line | relative viability (BX 795; 0.04 µM) | relative viability (BX 795; 0.1265 µM) | relative viability (BX 795; 0.4 µM) | relative viability (BX 795; 1.265 µM) | relative viability (BX 795 + Luminespib; first compound 0.1265 µM) | relative viability (BX 795 + Luminespib; first compound 0.4 µM) | relative viability (BX 795 + Luminespib; first compound 1.265 µM) | relative viability (BX 795 + Lapatinib; first compound 0.04 µM) | relative viability (BX 795 + Lapatinib; first compound 0.1265 µM) | relative viability (BX 795 + Lapatinib; first compound 0.4 µM) | relative viability (BX 795 + Lapatinib; first compound 1.265 µM) | relative viability (BX 795 + Crizotinib; first compound 0.04 µM) | relative viability (BX 795 + Crizotinib; first compound 0.1265 µM) | relative viability (BX 795 + Crizotinib; first compound 0.4 µM) | relative viability (BX 795 + Crizotinib; first compound 1.265 µM) | relative viability (BX 795 + Vorinostat; first compound 0.04 µM) | relative viability (BX 795 + Vorinostat; first compound 0.1265 µM) | relative viability (BX 795 + Vorinostat; first compound 0.4 µM) | relative viability (BX 795 + Vorinostat; first compound 1.265 µM) | relative viability (BX 795 + Luminespib; first compound 0.04 µM)
NCI-H23 | 1.07 | 0.952 | 0.896 | 0.769 | 0.207 | 0.216 | 0.211 | 1.24 | 1.26 | 0.812 | 0.884 | 0.459 | 0.503 | 0.374 | 0.257 | 0.583 | 0.651 | 0.376 | 0.285 | 
NCI-H322M | 1.09 | 0.964 | 1.12 | 1.25 | 0.915 | 0.266 | 1.03 | 0.675 | 0.616 | 0.628 | 0.684 | 0.906 | 0.959 | 0.711 | 0.912 | 0.981 | 0.884 | 1.36 | 1.18 | 0.589
NCI-H358 | 0.955 | 0.905 | 0.76 | 0.513 | 0.325 | 0.635 | 0.218 | 0.455 | 0.376 | 0.429 | 0.296 | 0.652 | 0.38 | 0.367 | 0.17 | 0.716 | 0.661 | 0.434 | 0.138 | 0.471
NCI-H460 | 0.995 | 1.08 | 0.991 | 0.954 | 0.0327 | 0.0422 | 0.0269 | 0.952 | 1.62 | 0.892 | 0.729 | 0.859 | 1.17 | 0.684 | 0.192 | 0.822 | 0.967 | 0.48 | 0.285 | 0.0385
NCI-H520 | 0.99 | 1.04 | 0.869 | 0.733 | 0.2 | 0.225 | 0.277 | 0.38 | 0.778 | 0.672 | 0.301 | 0.662 | 0.571 | 0.443 | 0.249 | 0.69 | 0.721 | 0.768 | 0.381 | 0.211
NCI-H596 | 1.05 | 1.04 | 1 | 0.933 | 1 | 1.14 | 0.764 | 1.01 | 1.11 | 1.11 | 1.15 | 1.08 | 1.02 | 1.03 | 0.874 | 0.669 | 0.585 | 0.623 | 0.594 | 1.21
NCI-H647 | 0.81 | 1.02 | 0.891 | 0.82 | 0.134 | 0.104 | 0.105 | 1.08 | 1.21 | 0.941 | 0.362 | 1.08 | 1.17 | 0.955 | 0.242 | 0.553 | 0.658 | 0.571 | 0.189 | 0.149
NCI-H650 | 0.933 | 1.02 | 0.954 | 0.805 | 0.759 | 0.65 | 0.745 | 0.86 | 0.873 | 0.952 | 0.689 | 0.712 | 0.771 | 0.421 | 0.619 | 0.391 | 0.429 | 0.339 | 0.34 | 0.765
NCI-H661 | 1.09 | 0.994 | 1.03 | 1.04 | 0.951 | 0.828 | 0.71 | 0.564 | 0.576 | 0.359 | 0.402 | 1.06 | 1.02 | 1.12 | 0.865 | 0.824 | 0.862 | 0.832 | 0.449 | 1
NCI-H727 | 1.01 | 0.899 | 0.978 | 1 | 0.257 | 0.29 | 0.389 | 0.737 | 1.01 | 0.735 | 0.637 | 0.868 | 0.986 | 0.634 | 0.492 | 1.29 | 1.25 | 1.14 | 1.21 | 0.345
NCI-H838 | 0.892 | 0.993 | 0.79 | 0.614 | 0.292 | 0.226 | 0.181 | 0.87 | 0.943 | 0.736 | 0.424 | 0.781 | 0.689 | 0.628 | 0.356 | 0.737 | 0.69 | 0.642 | 0.201 | 0.255
NCI-H1355 | 1.01 | 1.01 | 1.02 | 0.873 | 0.787 | 0.874 | 0.579 | 1.05 | 0.976 | 1.11 | 0.946 | 1.03 | 0.937 | 1.1 | 0.961 | 0.649 | 0.63 | 0.696 | 0.487 | 0.721
NCI-H1437 | 0.978 | 1.05 | 1.03 | 1.01 | 1.14 | 1.17 | 1.12 | 0.833 | 0.858 | 0.782 | 0.547 | 0.871 | 0.96 | 1.03 | 0.562 | 0.765 | 0.945 | 1.02 | 0.621 | 1.13
NCI-H1650 | 0.915 | 1.05 | 0.8 | 0.778 | 0.191 | 0.206 | 0.189 | 0.938 | 0.737 | 0.671 | 0.521 | 0.98 | 0.969 | 0.786 | 0.591 | 0.593 | 0.486 | 0.528 | 0.369 | 0.212
NCI-H1651 | 1.04 | 1.04 | 0.993 | 1 | 0.987 | 0.78 | 0.511 | 0.756 | 0.801 | 0.764 | 0.64 | 0.945 | 0.948 | 0.852 | 0.853 | 0.553 | 0.478 | 0.548 | 0.541 | 0.982
NCI-H1666 | 1.06 | 1.03 | 1.01 | 0.925 | 1.04 | 1.07 | 0.893 | 0.858 | 0.653 | 0.695 | 0.656 | 1.16 | 1.05 | 1.13 | 0.769 | 1.13 | 0.97 | 1.22 | 0.923 | 1
